{"source": "ChEMBL document CHEMBL5532691", "about": "“Anti-cancer activity and mechanism of flurbiprofen organoselenium compound RY-1-92 in non-small cell lung cancer” (RSC Med Chem, 2024)", "key": {"NCI-H460 [1]": {"tested_on": "NCI-H460", "experiment": "Downregulation of cyclin B1 protein expression in human NCI-H460 cells at 30 uM by Western blot analysis", "type": "functional, cell-based"}, "BEAS-2B": {"tested_on": "BEAS-2B", "experiment": "Cytotoxicity against human BEAS-2B cells assessed as reduction in cell viability at 3 to 300 uM measured after 48 hrs by MTT assay", "type": "toxicity, cell-based", "conditions": "dose 3-300 µM"}, "A549 [2]": {"tested_on": "A549", "experiment": "Induction of apoptosis in human A549 cells assessed as late apoptotic cells at 10 uM measured after 48 hrs by annexin V-FITC/PI staining based flow cytometry analysis (reference value: 15.12%)", "type": "functional"}, "A549 [3]": {"tested_on": "A549", "experiment": "Downregulation of AKT phosphorylation expression in human A549 cells at 10 to 30 uM by Western blot analysis", "type": "functional, cell-based", "conditions": "dose 10-30 µM"}, "Lewis lung carcinoma [4]": {"tested_on": "Lewis lung carcinoma", "experiment": "Antitumor activity against mouse Lewis lung carcinoma cell line xenografted in C57BL/6 mouse model assessed as increase in bax protein expression at 10 to 20 mg/kg by Western blot analysis", "type": "functional, organism-based", "conditions": "dose 10-20 mg/kg"}, "NCI-H460 [5]": {"tested_on": "NCI-H460", "experiment": "Induction of cell cycle arrest in human NCI-H460 cells assessed as accumulation of cells as G1 phase at 10 uM measured after 24 hrs by propidium iodide staining based flow cytometry analysis (Rvb =84.54%)", "type": "functional"}, "A549 [6]": {"tested_on": "A549", "experiment": "Downregulation of TRPV1 expression level in human A549 cells at 10 to 30 uM by Western blot analysis", "type": "functional, cell-based", "conditions": "dose 10-30 µM"}, "NCI-H460 [7]": {"tested_on": "NCI-H460", "experiment": "Induction of cell cycle arrest in human NCI-H460 cells assessed as accumulation of cells as G2 phase at 10 uM measured after 24 hrs by propidium iodide staining based flow cytometry analysis (reference value: 8.37%)", "type": "functional"}, "Lewis lung carcinoma [8]": {"tested_on": "Lewis lung carcinoma", "experiment": "Antitumor activity against mouse Lewis lung carcinoma cell line xenografted in C57BL/6 mouse model assessed as downregulation of cyclin B1 expression at 10 to 20 mg/kg by Western blot analysis", "type": "functional, organism-based", "conditions": "dose 10-20 mg/kg"}, "NCI-H460 [9]": {"tested_on": "NCI-H460", "experiment": "Induction of apoptosis in human NCI-H460 cells assessed as early apoptotic cells at 30 uM measured after 48 hrs by annexin V-FITC/PI staining based flow cytometry analysis (reference value: 0.32%)", "type": "functional"}, "A549 [10]": {"tested_on": "A549", "experiment": "Downregulation of JNK phosphorylation expression in human A549 cells at 10 to 30 uM by Western blot analysis", "type": "functional, cell-based", "conditions": "dose 10-30 µM"}, "A549 [11]": {"tested_on": "A549", "experiment": "Induction of cell cycle arrest in human A549 cells assessed as accumulation of cells as G1 phase at 10 uM measured after 24 hrs by propidium iodide staining based flow cytometry analysis (reference value: 71.74%)", "type": "functional"}, "A549 [12]": {"tested_on": "A549", "experiment": "Induction of apoptosis in human A549 cells assessed as viable cells at 10 uM measured after 48 hrs by annexin V-FITC/PI staining based flow cytometry analysis (reference value: 80.26%)", "type": "functional", "conditions": "read-out: Activity"}, "A549 [13]": {"tested_on": "A549", "experiment": "Induction of cell cycle arrest in human A549 cells assessed as accumulation of cells as G1 phase at 30 uM measured after 24 hrs by propidium iodide staining based flow cytometry analysis (reference value: 71.74%)", "type": "functional"}, "A549 [14]": {"tested_on": "A549", "experiment": "Inhibition of colony formation in human A549 cells at 30 uM measured after 48 hrs by giemsa staining based analysis relative to control", "type": "functional"}, "A549 [15]": {"tested_on": "A549", "experiment": "Induction of apoptosis in human A549 cells assessed as early apoptotic cells at 10 uM measured after 48 hrs by annexin V-FITC/PI staining based flow cytometry analysis (reference value: 0.59%)", "type": "functional"}, "Lewis lung carcinoma [16]": {"tested_on": "Lewis lung carcinoma", "experiment": "Antitumor activity against mouse Lewis lung carcinoma cell line xenografted in C57BL/6 mouse model assessed as increase in Bax/Bcl2 ratio at 10 to 20 mg/kg by Western blot analysis", "type": "functional, organism-based", "conditions": "dose 10-20 mg/kg"}, "NCI-H460 [17]": {"tested_on": "NCI-H460", "experiment": "Induction of apoptosis in human NCI-H460 cells assessed as early apoptotic cells at 10 uM measured after 48 hrs by annexin V-FITC/PI staining based flow cytometry analysis (reference value: 0.32%)", "type": "functional"}, "NCI-H460 [18]": {"tested_on": "NCI-H460", "experiment": "Inhibition of colony formation in human NCI-H460 cells at 30 uM measured after 48 hrs by giemsa staining based analysis relative to control", "type": "functional"}, "Lewis lung carcinoma [19]": {"tested_on": "Lewis lung carcinoma", "experiment": "Antitumor activity against mouse Lewis lung carcinoma cell line xenografted in C57BL/6 mouse model assessed as decrease in bcl-2 protein expression at 10 to 20 mg/kg by Western blot analysis", "type": "functional, organism-based", "conditions": "dose 10-20 mg/kg"}, "Lewis lung carcinoma [20]": {"tested_on": "Lewis lung carcinoma", "experiment": "Antitumor activity against mouse Lewis lung carcinoma cell line xenografted in C57BL/6 mouse model assessed as reduction in tumor weight at 10 to 20 mg/kg, ip measured every three days for 15 days […]", "type": "functional, organism-based", "conditions": "dose 10-20 mg/kg, time 15.0 day"}, "A549 [21]": {"tested_on": "A549", "experiment": "Induction of cell cycle arrest in human A549 cells assessed as accumulation of cells as S phase at 30 uM measured after 24 hrs by propidium iodide staining based flow cytometry analysis (reference value: 19.57%)", "type": "functional"}, "NCI-H460 [22]": {"tested_on": "NCI-H460", "experiment": "Downregulation of TRPV1 expression level in human NCI-H460 cells at 10 to 30 uM by Western blot analysis", "type": "functional, cell-based", "conditions": "dose 10-30 µM"}, "NCI-H460 [23]": {"tested_on": "NCI-H460", "experiment": "Induction of apoptosis in human NCI-H460 cells assessed as necrotic cells at 30 uM measured after 48 hrs by annexin V-FITC/PI staining based flow cytometry analysis (reference value: 2.47%)", "type": "functional"}, "NCI-H460 [24]": {"tested_on": "NCI-H460", "experiment": "Induction of cell cycle arrest in human NCI-H460 cells assessed as accumulation of cells as S phase at 10 uM measured after 24 hrs by propidium iodide staining based flow cytometry analysis (reference value: 7.09%)", "type": "functional"}, "NCI-H460 [25]": {"tested_on": "NCI-H460", "experiment": "Induction of apoptosis in human NCI-H460 cells assessed as late apoptotic cells at 30 uM measured after 48 hrs by annexin V-FITC/PI staining based flow cytometry analysis (reference value: 5.41%)", "type": "functional"}, "A549 [26]": {"tested_on": "A549", "experiment": "Induction of cell cycle arrest in human A549 cells assessed as accumulation of cells as G2 phase at 10 uM measured after 24 hrs by propidium iodide staining based flow cytometry analysis (reference value: 8.69%)", "type": "functional"}, "NCI-H460 [27]": {"tested_on": "NCI-H460", "experiment": "Induction of apoptosis in human NCI-H460 cells assessed as late apoptotic cells at 10 uM measured after 48 hrs by annexin V-FITC/PI staining based flow cytometry analysis (reference value: 5.41%)", "type": "functional"}, "NCI-H460 [28]": {"tested_on": "NCI-H460", "experiment": "Inhibition of cell migration in human NCI-H460 cells at 10 to 30 uM measured after 24 hrs by wound healing assay relative to control", "type": "functional", "conditions": "dose 10-30 µM"}, "NCI-H460 [29]": {"tested_on": "NCI-H460", "experiment": "Upregulation of Bax/Bcl2 ratio in human NCI-H460 cells at 10 to 30 uM by Western blot analysis", "type": "functional, cell-based", "conditions": "dose 10-30 µM"}, "NCI-H460 [30]": {"tested_on": "NCI-H460", "experiment": "Downregulation of JNK phosphorylation expression in human NCI-H460 cells at 10 to 30 uM by Western blot analysis", "type": "functional, cell-based", "conditions": "dose 10-30 µM"}}, "note": "Active and inactive are the calls of the source. The rule behind the calls is not given here."}
{"smiles": "CC(C(=O)NCCC[Se]C(F)(F)F)c1ccc(-c2ccccc2)c(F)c1", "note": "(stereo unspecified)", "values": [{"measurement": "Activity", "setting": "NCI-H460 [1]", "value": "Active"}, {"measurement": "Activity", "setting": "BEAS-2B", "value": "Toxic"}, {"measurement": "Activity", "setting": "A549 [2]", "value": 20.25, "unit": "%"}, {"measurement": "Activity", "setting": "A549 [3]", "value": "Active"}, {"measurement": "Activity", "setting": "Lewis lung carcinoma [4]", "value": "Active"}, {"measurement": "Activity", "setting": "NCI-H460 [5]", "value": 78.71, "unit": "%"}, {"measurement": "Activity", "setting": "A549 [6]", "value": "Active"}, {"measurement": "Activity", "setting": "NCI-H460 [7]", "value": 10.69, "unit": "%"}, {"measurement": "Activity", "setting": "Lewis lung carcinoma [8]", "value": "Active"}, {"measurement": "Activity", "setting": "NCI-H460 [9]", "value": 1.97, "unit": "%"}, {"measurement": "Activity", "setting": "A549 [10]", "value": "Active"}, {"measurement": "Activity", "setting": "A549 [11]", "value": 76.88, "unit": "%"}, {"measurement": "viability at 10 µM", "setting": "A549 [12]", "value": 74.6, "unit": "%"}, {"measurement": "Activity", "setting": "A549 [13]", "value": 7.45, "unit": "%"}, {"measurement": "inhibition at 30 µM", "setting": "A549 [14]", "value": 89, "unit": "%"}, {"measurement": "Activity", "setting": "A549 [15]", "value": 0.53, "unit": "%"}, {"measurement": "Activity", "setting": "Lewis lung carcinoma [16]", "value": "Active"}, {"measurement": "Activity", "setting": "NCI-H460 [17]", "value": 0.36, "unit": "%"}, {"measurement": "inhibition at 30 µM", "setting": "NCI-H460 [18]", "value": 88, "unit": "%"}, {"measurement": "Activity", "setting": "Lewis lung carcinoma [19]", "value": "Active"}, {"measurement": "Activity", "setting": "Lewis lung carcinoma [20]", "value": "Active"}, {"measurement": "Activity", "setting": "A549 [21]", "value": 52.63, "unit": "%"}, {"measurement": "Activity", "setting": "NCI-H460 [22]", "value": "Active"}, {"measurement": "Activity", "setting": "NCI-H460 [23]", "value": 6.76, "unit": "%"}, {"measurement": "Activity", "setting": "NCI-H460 [24]", "value": 10.6, "unit": "%"}, {"measurement": "Activity", "setting": "NCI-H460 [25]", "value": 17.28, "unit": "%"}, {"measurement": "Activity", "setting": "A549 [26]", "value": 9.29, "unit": "%"}, {"measurement": "Activity", "setting": "NCI-H460 [27]", "value": 6.97, "unit": "%"}, {"measurement": "inhibition (INH)", "setting": "NCI-H460 [28]", "value": 47.5, "unit": "%"}, {"measurement": "Activity", "setting": "NCI-H460 [29]", "value": "Active"}, {"measurement": "Activity", "setting": "NCI-H460 [30]", "value": "Active"}]}
